# Assay: Example 10: tacrolimus tissue, plasma, rectal and GI content pharmacokinetics, oral vs intra-cecal ingestible device
# Set-up: species or system Yorkshire-Cross farm swine
# Conditions: female, Yorkshire-Cross, swine, in vivo, 0.09 mg/kg
# Protocol: The primary objective of this study was to compare the tissue, plasma, rectal sample, and GI content pharmacokinetics of tacrolimus through oral versus intra-cecal ingestible device delivery in normal Yorkshire-Cross farm swine.
# No further randomization procedure was employed.
# Animals in Group 1 received an ingestible device containing 0.8 mL of vehicle solution (80% alcohol, 20% HCO-60). Animals in Group 2 received orally […] liquid formulation of tacrolimus at 4 mg/0.8 mL per animal (Prograf: 5 mg/mL). Animals in Group 3 received intra-cecally an ingestible device containing tacrolimus at 1 mg in 0.8 mL per ingestible device. […]
# Approximately 200-400 mg of rectal content were collected, if available, with a fecal swab (Copan Diagnostics Nylon Flocked Dry Swabs, 502CS01). The fecal swab was pre-weighed and weighed after collection in the collection tube (Sterile Tube and Cap No Media, PFPM913S), and the sample weight was recorded. […]
# For tissue necropsy, small intestine fluid and cecal fluid were collected separately from all the animals into two separate square plastic bottles, and stored at −20° C. The length and diameter of the cecum and the colon was measured from one animal in each group and recorded for reference. […] All samples were weighed, and the tissue sample weights were recorded. […]
smiles,measurement,value
C=CC[C@@H]1/C=C(\C)C[C@H](C)C[C@H](OC)[C@H]2O[C@@](O)(C(=O)C(=O)N3CCCC[C@H]3C(=O)O[C@H](/C(C)=C/[C@@H]3CC[C@@H](O)[C@H](OC)C3)[C@H](C)[C@@H](O)CC1=O)[C@H](C)C[C@@H]2OC [tacrolimus],concentration at 12 h,4.38 ± 0.516 ng/mL

# Reference: patent US20230312700A1, “TREATMENT OF A DISEASE OF THE GASTROINTESTINAL TRACT WITH A TNF INHIBITOR” (Progenity, Inc., priority 2018, published 2023)
